From ChEMBL document CHEMBL1201862, “PubChem BioAssay data set” (2004)
Calls of active or inactive are those of the source.

Experiments:
[1] = target: T1, Lysine-specific demethylase 4C (Homo sapiens, UniProt Q9H3R0); assay: GASC-1 (JMJD2C) histone demethylase inhibitors, dose response, biochemical, DELFIA europium, cherry-picked samples (AID 488835); type: functional
T1 sequence (Q9H3R0 whole entry): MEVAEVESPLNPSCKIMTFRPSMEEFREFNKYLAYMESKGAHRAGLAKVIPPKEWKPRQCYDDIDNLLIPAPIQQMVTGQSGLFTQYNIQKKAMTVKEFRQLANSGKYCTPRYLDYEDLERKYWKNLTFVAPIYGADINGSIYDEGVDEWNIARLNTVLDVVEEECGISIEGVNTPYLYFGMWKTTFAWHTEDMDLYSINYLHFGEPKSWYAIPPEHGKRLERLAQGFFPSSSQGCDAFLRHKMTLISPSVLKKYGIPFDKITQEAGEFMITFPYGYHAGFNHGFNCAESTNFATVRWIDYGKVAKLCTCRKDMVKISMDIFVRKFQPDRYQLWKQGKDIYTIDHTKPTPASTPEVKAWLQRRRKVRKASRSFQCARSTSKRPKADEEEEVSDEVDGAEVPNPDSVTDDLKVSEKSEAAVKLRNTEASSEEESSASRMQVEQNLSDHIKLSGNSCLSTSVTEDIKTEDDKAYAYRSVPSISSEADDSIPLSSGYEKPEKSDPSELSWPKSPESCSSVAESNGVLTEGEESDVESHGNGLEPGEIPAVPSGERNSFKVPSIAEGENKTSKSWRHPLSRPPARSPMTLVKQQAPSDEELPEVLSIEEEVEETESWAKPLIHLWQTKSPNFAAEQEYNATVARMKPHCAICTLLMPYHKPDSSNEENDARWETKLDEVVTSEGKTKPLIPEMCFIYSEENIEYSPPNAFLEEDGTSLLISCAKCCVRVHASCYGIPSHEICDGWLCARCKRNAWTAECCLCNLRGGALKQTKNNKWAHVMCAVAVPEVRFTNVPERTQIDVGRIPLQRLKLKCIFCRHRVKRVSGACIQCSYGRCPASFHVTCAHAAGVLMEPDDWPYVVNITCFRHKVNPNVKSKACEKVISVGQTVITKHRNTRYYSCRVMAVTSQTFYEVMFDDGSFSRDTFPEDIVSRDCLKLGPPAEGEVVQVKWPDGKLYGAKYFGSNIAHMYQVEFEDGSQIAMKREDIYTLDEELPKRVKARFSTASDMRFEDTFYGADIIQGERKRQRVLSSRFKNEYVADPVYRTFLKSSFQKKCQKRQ

[2] = target: T2, Leucine aminopeptidase (Plasmodium falciparum 3D7, UniProt Q8IL11); assay: P. falciparum M17LAP inhibitors, primary screen, biochemical, fluorogenic H-Leu-NHMec substrate, 1536-well (AID 1619); type: functional
T2 sequence (Q8IL11 whole entry): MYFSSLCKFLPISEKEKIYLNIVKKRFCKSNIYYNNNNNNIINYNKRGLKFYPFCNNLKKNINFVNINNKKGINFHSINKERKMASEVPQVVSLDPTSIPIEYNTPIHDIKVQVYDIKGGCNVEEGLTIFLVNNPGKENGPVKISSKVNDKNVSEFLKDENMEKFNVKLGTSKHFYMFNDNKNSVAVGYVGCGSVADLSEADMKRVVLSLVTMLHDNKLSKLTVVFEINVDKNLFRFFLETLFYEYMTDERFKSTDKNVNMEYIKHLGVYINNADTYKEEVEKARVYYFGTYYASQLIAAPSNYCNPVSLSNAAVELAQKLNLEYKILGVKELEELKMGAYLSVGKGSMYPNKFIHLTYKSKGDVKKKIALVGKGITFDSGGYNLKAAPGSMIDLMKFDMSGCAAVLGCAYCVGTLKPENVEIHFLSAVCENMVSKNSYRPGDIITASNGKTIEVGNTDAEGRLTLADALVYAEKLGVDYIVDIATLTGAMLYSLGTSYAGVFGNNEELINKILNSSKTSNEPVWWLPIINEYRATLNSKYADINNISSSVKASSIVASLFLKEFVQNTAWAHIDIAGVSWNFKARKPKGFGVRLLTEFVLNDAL

[3] = target: Large T antigen (Simian virus 40, UniProt P03070); type: functional, Betapolyomavirus macacae;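 note: Confirmatory-stage PubChem screen for compounds that inhibit SV40 T antigen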
Chain of Large T antigen (P03070 whole entry): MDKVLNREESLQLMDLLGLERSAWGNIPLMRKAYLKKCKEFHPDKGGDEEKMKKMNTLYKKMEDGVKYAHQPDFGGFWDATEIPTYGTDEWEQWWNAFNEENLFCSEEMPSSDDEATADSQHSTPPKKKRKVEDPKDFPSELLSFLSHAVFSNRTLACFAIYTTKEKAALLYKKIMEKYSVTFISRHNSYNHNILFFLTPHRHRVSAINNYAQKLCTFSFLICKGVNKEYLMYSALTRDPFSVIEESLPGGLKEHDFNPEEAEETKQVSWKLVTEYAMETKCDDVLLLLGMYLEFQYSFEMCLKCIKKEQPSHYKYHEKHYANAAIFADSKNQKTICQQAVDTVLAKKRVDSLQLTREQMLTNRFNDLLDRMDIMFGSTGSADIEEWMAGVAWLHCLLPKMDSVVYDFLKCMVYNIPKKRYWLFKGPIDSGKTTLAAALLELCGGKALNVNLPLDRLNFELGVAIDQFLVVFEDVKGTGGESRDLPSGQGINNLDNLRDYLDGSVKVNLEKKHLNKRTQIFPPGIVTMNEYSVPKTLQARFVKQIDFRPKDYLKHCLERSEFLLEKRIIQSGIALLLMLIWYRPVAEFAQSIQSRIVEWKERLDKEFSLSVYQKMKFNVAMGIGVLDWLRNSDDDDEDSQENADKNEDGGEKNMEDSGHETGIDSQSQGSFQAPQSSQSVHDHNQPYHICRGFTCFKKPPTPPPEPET

[4] = target: Alkaline phosphatase, placental type (Homo sapiens, UniProt P05187); assay: PLAP enzyme inhibitors, confirmation, biochemical, luminescence (AID 1512); type: functional
Chain of Alkaline phosphatase, placental type (P05187 whole entry): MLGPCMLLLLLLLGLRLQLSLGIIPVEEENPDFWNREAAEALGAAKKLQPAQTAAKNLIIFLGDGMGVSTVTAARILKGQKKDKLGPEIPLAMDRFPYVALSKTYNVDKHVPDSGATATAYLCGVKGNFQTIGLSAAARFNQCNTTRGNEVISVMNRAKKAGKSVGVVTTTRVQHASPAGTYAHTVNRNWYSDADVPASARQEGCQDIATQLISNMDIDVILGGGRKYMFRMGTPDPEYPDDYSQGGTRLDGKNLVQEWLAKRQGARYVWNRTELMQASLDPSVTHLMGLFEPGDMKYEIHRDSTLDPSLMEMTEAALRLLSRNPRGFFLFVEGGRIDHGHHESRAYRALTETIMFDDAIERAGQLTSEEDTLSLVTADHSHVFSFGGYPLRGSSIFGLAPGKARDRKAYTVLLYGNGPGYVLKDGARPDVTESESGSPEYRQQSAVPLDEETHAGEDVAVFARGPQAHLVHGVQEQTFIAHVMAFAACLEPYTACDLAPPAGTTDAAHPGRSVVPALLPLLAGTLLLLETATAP

[5] = target: T3, Alkaline phosphatase, tissue-nonspecific isozyme (Homo sapiens, UniProt P05186); assay: human TNAP enzyme inhibitors, SAR follow-up, biochemical, luminescent, dose response (AID 1056)
T3 sequence (P05186 whole entry): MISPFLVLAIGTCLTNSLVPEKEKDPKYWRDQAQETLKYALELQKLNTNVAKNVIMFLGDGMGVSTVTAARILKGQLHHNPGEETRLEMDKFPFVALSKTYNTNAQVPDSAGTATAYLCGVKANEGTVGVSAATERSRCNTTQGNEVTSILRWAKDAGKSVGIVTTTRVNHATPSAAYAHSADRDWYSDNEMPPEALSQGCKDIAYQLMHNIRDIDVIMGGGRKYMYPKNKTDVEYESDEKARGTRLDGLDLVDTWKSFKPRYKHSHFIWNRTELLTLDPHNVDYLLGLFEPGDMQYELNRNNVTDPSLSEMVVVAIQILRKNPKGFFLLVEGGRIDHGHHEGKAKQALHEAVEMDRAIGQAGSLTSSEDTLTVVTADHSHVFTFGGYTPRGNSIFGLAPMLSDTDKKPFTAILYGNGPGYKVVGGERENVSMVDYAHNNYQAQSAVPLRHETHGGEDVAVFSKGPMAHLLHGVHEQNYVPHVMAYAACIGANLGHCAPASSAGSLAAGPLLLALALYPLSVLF

[6] = target: T4, Bifunctional protein GlmU (Mycobacterium tuberculosis, UniProt P9WMN3); assay: Inhibitors of Mycobacterial Glucosamine-1-phosphate acetyl transferase (GlmU). Secondary screen.; parameters: species or system Mycobacterium tuberculosis H37Rv
T4 sequence (P9WMN3 whole entry): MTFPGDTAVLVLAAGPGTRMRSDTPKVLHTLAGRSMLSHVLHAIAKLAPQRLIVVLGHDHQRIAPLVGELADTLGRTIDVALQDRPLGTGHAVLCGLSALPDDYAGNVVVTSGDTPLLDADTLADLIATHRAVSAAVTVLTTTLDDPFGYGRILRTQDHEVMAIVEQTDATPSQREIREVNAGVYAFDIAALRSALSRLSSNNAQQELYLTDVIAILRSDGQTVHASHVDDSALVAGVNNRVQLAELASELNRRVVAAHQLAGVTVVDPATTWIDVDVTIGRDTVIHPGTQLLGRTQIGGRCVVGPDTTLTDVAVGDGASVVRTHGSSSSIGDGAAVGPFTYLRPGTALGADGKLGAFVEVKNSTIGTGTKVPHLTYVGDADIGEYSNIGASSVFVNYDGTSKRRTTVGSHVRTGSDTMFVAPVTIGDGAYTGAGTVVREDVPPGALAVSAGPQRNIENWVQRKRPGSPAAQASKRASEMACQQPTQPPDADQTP

[7] = target: DNA dC->dU-editing enzyme APOBEC-3A (Homo sapiens, UniProt P31941); assay: Dose Response confirmation of small molecule APOBEC3A DNA Deaminase Inhibitors via a fluorescence-based single-stranded DNA deaminase assay. [Related pubchem assays (depositor defined):AID493011, AID493024]; type: functional
Chain of DNA dC->dU-editing enzyme APOBEC-3A (P31941 whole entry): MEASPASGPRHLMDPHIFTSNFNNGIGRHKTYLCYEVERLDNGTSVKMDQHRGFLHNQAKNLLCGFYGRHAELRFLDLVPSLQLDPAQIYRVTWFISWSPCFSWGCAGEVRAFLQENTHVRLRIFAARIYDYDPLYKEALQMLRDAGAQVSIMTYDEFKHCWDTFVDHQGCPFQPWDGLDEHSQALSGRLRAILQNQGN

[8] = target: DNA dC->dU-editing enzyme APOBEC-3G (Homo sapiens, UniProt Q9HC16); type: functional;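 note: Dose-response counterscreen measuring inhibition of APOBEC3G DNA deaminase activity, run while confirming APOBEC3A inhibitors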
Chain of DNA dC->dU-editing enzyme APOBEC-3G (Q9HC16 whole entry): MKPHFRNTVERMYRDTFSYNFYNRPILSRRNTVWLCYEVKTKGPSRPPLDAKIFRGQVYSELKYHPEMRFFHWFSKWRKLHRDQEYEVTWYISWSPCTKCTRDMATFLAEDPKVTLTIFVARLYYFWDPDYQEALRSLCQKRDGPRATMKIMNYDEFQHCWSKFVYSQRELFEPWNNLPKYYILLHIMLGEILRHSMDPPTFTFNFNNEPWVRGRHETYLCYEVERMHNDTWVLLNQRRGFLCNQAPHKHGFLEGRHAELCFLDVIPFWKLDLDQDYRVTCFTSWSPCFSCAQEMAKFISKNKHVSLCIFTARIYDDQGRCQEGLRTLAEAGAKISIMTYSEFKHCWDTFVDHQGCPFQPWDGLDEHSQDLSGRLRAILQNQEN

[9] = target: Ion channel NompC (Danio rerio, UniProt Q7T1G6); assay: Dose response cell-based high-throughput screening assay for agonists of the transient receptor potential channel N1 (TRPN1). [Related pubchem assays (depositor defined):AID1424, AID1448]; type: functional
Chain of Ion channel NompC (Q7T1G6 whole entry): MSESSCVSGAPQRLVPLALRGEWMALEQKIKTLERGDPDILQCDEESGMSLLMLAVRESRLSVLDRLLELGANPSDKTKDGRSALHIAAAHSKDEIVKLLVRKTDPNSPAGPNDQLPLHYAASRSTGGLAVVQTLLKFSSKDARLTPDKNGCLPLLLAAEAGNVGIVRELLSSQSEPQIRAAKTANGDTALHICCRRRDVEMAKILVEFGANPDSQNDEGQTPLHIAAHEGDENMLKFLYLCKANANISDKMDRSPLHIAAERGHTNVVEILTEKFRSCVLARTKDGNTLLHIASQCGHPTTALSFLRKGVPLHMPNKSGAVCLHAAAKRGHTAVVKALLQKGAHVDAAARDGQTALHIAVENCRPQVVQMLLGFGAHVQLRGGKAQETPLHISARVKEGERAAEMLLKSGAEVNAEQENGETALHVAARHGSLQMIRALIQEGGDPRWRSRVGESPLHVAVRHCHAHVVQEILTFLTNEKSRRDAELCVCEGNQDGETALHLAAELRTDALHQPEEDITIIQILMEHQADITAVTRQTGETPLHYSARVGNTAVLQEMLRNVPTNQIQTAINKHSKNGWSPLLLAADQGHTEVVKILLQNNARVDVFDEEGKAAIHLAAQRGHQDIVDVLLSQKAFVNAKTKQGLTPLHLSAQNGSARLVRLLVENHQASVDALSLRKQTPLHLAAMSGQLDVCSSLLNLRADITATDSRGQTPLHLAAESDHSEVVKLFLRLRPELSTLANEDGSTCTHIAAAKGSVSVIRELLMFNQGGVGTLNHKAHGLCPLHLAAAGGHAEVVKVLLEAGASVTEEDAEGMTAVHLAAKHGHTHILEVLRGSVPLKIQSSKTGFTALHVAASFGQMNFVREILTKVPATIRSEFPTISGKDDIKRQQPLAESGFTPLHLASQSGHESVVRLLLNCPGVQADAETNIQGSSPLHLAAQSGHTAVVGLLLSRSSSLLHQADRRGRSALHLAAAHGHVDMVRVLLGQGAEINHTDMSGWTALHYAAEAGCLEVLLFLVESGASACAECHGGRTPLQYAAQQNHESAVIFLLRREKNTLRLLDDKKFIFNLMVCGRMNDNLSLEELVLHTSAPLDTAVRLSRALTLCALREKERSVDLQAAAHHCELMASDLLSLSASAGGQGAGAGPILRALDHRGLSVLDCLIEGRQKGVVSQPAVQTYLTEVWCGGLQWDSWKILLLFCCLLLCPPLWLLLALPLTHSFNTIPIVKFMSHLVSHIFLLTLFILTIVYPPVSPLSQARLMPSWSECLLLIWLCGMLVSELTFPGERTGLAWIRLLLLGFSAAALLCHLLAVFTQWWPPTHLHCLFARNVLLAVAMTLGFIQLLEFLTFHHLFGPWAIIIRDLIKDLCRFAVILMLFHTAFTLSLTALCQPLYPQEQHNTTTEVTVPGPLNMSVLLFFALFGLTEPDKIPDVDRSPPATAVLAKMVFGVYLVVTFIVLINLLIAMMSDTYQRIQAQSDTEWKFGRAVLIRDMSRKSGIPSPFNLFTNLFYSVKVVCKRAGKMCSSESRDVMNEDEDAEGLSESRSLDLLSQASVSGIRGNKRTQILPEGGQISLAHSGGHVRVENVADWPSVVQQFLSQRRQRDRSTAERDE

[10] = target: T5, Mucolipin-3 (Homo sapiens, UniProt Q8TDD5); assay: Fluorescence counterscreen assay for […] agonists: dose response cell-based high-throughput screening assay to identify agonists of the transient receptor potential channel ML3 (TRPML3). [Related pubchem assays: 1424, 1448 ]; type: functional
T5 sequence (Q8TDD5 whole entry): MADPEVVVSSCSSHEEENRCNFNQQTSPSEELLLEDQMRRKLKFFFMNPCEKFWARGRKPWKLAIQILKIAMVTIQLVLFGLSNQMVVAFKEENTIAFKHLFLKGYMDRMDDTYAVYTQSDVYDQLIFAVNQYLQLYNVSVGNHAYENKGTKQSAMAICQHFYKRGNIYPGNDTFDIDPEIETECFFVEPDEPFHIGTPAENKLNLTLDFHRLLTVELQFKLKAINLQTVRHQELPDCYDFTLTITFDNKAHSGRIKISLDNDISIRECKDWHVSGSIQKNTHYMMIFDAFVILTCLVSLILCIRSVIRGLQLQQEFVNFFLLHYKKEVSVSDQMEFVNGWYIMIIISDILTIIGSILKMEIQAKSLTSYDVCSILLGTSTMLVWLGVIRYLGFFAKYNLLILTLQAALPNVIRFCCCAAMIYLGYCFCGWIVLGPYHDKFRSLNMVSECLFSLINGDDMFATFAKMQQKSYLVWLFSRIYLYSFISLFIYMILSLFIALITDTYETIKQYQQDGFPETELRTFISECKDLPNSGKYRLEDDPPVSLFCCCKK

[11] = target: T6, Corticotropin-releasing factor receptor 2/Corticotropin-releasing factor-binding protein (Homo sapiens, UniProt P24387+Q13324); assay: activators of CRF receptor 2 with binding protein – uHTS hits, confirmation (AID 602473); type: functional; settings: read-out: EC50_Mean
T6 sequence (Q13324 whole entry): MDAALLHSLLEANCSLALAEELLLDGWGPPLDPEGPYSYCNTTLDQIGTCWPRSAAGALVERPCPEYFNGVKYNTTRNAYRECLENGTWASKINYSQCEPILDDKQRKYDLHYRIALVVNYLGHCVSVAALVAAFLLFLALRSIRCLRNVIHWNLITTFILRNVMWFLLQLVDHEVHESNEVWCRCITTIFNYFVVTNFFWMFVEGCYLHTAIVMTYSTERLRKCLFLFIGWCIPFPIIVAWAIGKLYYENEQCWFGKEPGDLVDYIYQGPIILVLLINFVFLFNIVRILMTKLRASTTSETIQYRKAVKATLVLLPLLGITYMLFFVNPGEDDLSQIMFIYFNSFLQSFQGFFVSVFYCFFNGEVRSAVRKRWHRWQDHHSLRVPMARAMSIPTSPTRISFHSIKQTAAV
T6 sequence (P24387 whole entry): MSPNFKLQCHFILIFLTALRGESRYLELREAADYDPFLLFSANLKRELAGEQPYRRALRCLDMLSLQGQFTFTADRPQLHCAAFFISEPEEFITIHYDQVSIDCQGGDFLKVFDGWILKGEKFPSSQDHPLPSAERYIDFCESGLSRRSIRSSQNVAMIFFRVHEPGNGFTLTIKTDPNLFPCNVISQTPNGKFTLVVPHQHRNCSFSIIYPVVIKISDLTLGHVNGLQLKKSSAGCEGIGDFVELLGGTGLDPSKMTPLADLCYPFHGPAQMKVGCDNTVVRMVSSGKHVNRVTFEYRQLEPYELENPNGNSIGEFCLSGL

[12] = tested on: HEK293; assay: cells; settings: Homo sapiens
[13] = tested on: HEK293; assay: cells; settings: Homo sapiens; remark: listed apart in the source
[14] = growth suppression of PTEN-null colon cells, dose response, cell-based, HCT116 PTEN knockout (AID 1047); type: functional;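 note: HCT116 colon tumor cells with PTEN knocked out; cells exposed to compound for 60 hours before readout; potency for loss of cell viability measured by luminescence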
[15] = growth suppression of beta-catenin-knockout colon cells, dose response, cell-based, HCT116, human colon tumor (AID 1045); type: functional;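 note: HCT116 colon tumor cells with beta catenin knocked out; cells exposed to compound for 60 hours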
[16] = target: Cytochrome P450 2C19 (Homo sapiens, UniProt P33261); assay: Cytochrome panel assay with activity outcomes. Panel member name: p450-cyp2c19 Compounds with AC50 equal or less than 10 uM are considered active; type: functional; settings: read-out: AC50
Chain of Cytochrome P450 2C19 (P33261 whole entry): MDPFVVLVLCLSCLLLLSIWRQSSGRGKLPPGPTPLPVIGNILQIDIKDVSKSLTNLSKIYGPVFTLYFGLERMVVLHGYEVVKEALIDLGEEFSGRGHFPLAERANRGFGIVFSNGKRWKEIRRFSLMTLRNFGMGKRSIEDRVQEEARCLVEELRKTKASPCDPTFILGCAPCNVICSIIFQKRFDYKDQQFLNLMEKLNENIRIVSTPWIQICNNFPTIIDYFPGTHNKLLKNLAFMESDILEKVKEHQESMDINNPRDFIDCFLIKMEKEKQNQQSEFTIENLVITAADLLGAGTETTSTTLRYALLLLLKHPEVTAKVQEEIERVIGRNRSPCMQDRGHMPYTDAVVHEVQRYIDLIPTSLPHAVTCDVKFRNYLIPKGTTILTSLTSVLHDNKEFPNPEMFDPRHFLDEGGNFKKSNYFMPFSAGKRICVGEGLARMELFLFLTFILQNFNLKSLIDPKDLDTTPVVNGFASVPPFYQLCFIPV

CN1C(=O)N(C)C(=O)C2(Sc3ccccc3C2=O)C1=O
AC50 [1]: 11.2 µM (active)

CCn1c(SCC(=O)c2ccc(O)c(O)c2)nnc1-c1ccc(C)cc1
IC50 [2]: 17.9 µM (active) | IC50 [3]: 10.4 µM (active) | IC50 [4]: 11.8 µM (active) | IC50 [5]: > 100 µM (inactive)

Cc1cccc(N2C(=O)NC(=O)/C(=C/c3ccc([N+](=O)[O-])o3)C2=O)c1
IC50 [6]: 149 µM (active) | AC50 [1]: 5.37 µM (active)

COc1ccccc1N(CC(=O)Nc1ccc2c(c1)OCO2)S(=O)(=O)c1ccccc1
IC50 [7]: 2.01 µM (active) | IC50 [8]: 1.81 µM (active)

NC(S)=NNC(=O)C12CC3CC(CC(C3)C1)C2
EC50 [9]: 1.47 µM (active) | EC50 [10]: 2.76 µM (active) | EC50 [11]: 3.53 µM (active)

N#Cc1c(N)n(C2CCCCC2)c2nc3ccccc3nc12
EC50 [12]: > 59.6 µM (inactive) | EC50 [13]: > 59.6 µM (inactive)

O=C(Nc1ccccc1)Nc1ccc(F)c([N+](=O)[O-])c1
EC50 [9]: > 29.9 µM (inactive) | EC50 [14]: 15.2 µM (active) | EC50 [10]: > 29.9 µM (not active) | EC50 [15]: 18.1 µM (active)

Cc1ccc(C)c(NC(=O)c2nc[nH]n2)c1
IC50 [7]: 11.6 µM (active) | IC50 [8]: 14.1 µM (active) | AC50 [16]: 39.8 µM (inconclusive)

COc1ccc(Br)cc1CN(C)C(=O)C1=CC=CN2CCS(=O)(=O)N=C12
IC50 [7]: 20.2 µM (active) | IC50 [8]: 48.3 µM (active)

CCCCN1C(=O)/C(=N\Nc2ccccc2C)c2ccccc21
IC50 [4]: 74.4 µM (active) | IC50 [5]: 78 µM (active)

CCCCCn1/c(=N/C(=O)c2ccco2)c(C(=O)OCC)cc2c(=O)n3ccccc3nc21
EC50 [12]: > 59.6 µM (inactive) | EC50 [13]: > 59.6 µM (inactive)
